#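 How tested: cells in 96-well plates exposed to compound for 48 hours at five concentrations. GI50: concentration for 50% inhibition of growth. Definition used: TGI = concentration required for complete inhibition of growth.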 Starred links: 1 amine or outer side, 2 acyl side, 3 side chain; linkers in the order of their positions; H or OH if unused. Non-standard residues stand in square brackets, D forms with d. Residues, ends and D or L forms follow the SMILES beside them. *: point of attachment. X14 = C/C=C/CC(C)C(O)[C@H](N[*:1])C(=O)[*:2]; Decanoyl = CCCCCCCCCC(=O)*; Leu(ol) = CC(C)C[C@H](N)CO; Iva = CC[C@](C)(N)C(=O)O; Aib = CC(C)(N)C(=O)O
# Columns and labels:
# Test in all cases: NCI-60 cell line screen, 48 h
# [1] = tested on: U251 CNS
# [2] = tested on: CAKI-1 renal
# [3] = tested on: RPMI-8226 leukemia
# [4] = tested on: SR leukemia
# [5] = tested on: DU-145 prostate
# [6] = tested on: KM12 colon
# [7] = tested on: PC-3 prostate
# [8] = tested on: A498 renal
# [9] = tested on: TK-10 renal
# [10] = tested on: NCI-H460 lung
# [11] = tested on: NCI-H522 lung
# [12] = tested on: OVCAR-5 ovarian
# [13] = tested on: SK-MEL-2 melanoma
# [14] = tested on: SF-295 CNS
# [15] = tested on: HCT-15 colon
# [16] = tested on: HL-60(TB) leukemia
# [17] = tested on: MALME-3M melanoma
# [18] = tested on: BT-549 breast
# [19] = tested on: SK-MEL-5 melanoma
# [20] = tested on: CCRF-CEM leukemia
# [21] = tested on: OVCAR-8 ovarian
# [22] = tested on: HCT-116 colon
# [23] = tested on: SW-620 colon
# [24] = tested on: ACHN renal
# [25] = tested on: MDA-MB-435
# [26] = tested on: UACC-257 melanoma
# [27] = tested on: SF-539 CNS
# [28] = tested on: HOP-92 NSCLC
# [29] = tested on: EKVX NSCLC
# [30] = tested on: SK-OV-3 ovarian
# [31] = tested on: MDA-MB-231 breast
# [32] = tested on: HS 578T breast
# [33] = tested on: UACC-62 melanoma
# [34] = tested on: OVCAR-3 ovarian
# [35] = tested on: COLO 205 colon
# [36] = tested on: SNB-75 CNS
# [37] = tested on: SNB-19 CNS
# [38] = tested on: NCI/ADR-RES ovarian
# [39] = tested on: SN12C renal
# [40] = tested on: SK-MEL-28 melanoma
# [41] = tested on: MCF7 breast
# [42] = tested on: IGROV1 ovarian
# [43] = tested on: LOX IMVI melanoma
# [44] = tested on: UO-31 renal
# [45] = tested on: OVCAR-4 ovarian
# [46] = tested on: SF-268 CNS
# [47] = tested on: MOLT-4 leukemia
# [48] = tested on: M14 melanoma
# [49] = tested on: 786-0 renal
# [50] = tested on: HCC-2998 colon
# [51] = tested on: NCI-H226 lung
# [52] = tested on: A549 NSCLC
# [53] = tested on: HT29 colon
# [54] = tested on: K-562 leukemia
# [55] = tested on: RXF 393 renal
structure (smiles),measurement,setting,value
C/C=C/CC(C)C(O)[C@H](NC(=O)[C@@H]1CCCN1C(=O)C(C)(C)NC(=O)CCCCCCCCC)C(=O)N[C@@](C)(CC)C(=O)N[C@@H](CCC(N)=O)C(=O)N[C@H](CCC(N)=O)C(=O)NC(C)(C)C(=O)N[C@@](C)(CC)C(=O)N[C@@H](CCC(N)=O)C(=O)N[C@H](CC(C)C)C(=O)N[C@H](CO)CC(C)C (stereo partly drawn) (Decanoyl-[Aib]P[X14][Iva]Q[dQ][Aib][Iva]Q[dL][Leu(ol)]),GI50,[1],54.8 nM
same,TGI,[1],1200 nM
same,GI50,[2],206 nM
same,TGI,[2],659 nM
same,GI50,[3],29.5 nM
same,TGI,[3],140 nM
same,GI50,[4],253 nM
same,TGI,[4],943 nM
same,GI50,[5],318 nM
same,TGI,[5],1530 nM
same,GI50,[6],75.2 nM
same,TGI,[6],1170 nM
same,GI50,[7],52.7 nM
same,TGI,[7],1050 nM
same,GI50,[8],242 nM
same,TGI,[8],721 nM
same,GI50,[9],67.5 nM
same,TGI,[9],1530 nM
same,GI50,[10],94 nM
same,TGI,[10],1150 nM
same,GI50,[11],55 nM
same,TGI,[11],720 nM
same,GI50,[12],208 nM
same,TGI,[12],1290 nM
same,GI50,[13],60.4 nM
same,TGI,[13],688 nM
same,GI50,[14],48.8 nM
same,TGI,[14],754 nM
same,GI50,[15],297 nM
same,TGI,[15],1270 nM
same,GI50,[16],29.1 nM
same,TGI,[16],114 nM
same,GI50,[17],30.9 nM
same,TGI,[17],643 nM
same,GI50,[18],304 nM
same,TGI,[18],829 nM
same,GI50,[19],40.7 nM
same,TGI,[19],200 nM
same,GI50,[20],152 nM
same,TGI,[20],1180 nM
same,GI50,[21],199 nM
same,TGI,[21],1330 nM
same,GI50,[22],87 nM
same,TGI,[22],1200 nM
same,GI50,[23],89.2 nM
same,TGI,[23],1330 nM
same,GI50,[24],87.7 nM
same,TGI,[24],1130 nM
same,GI50,[25],111 nM
same,TGI,[25],1200 nM
same,GI50,[26],62.1 nM
same,TGI,[26],758 nM
same,GI50,[27],338 nM
same,TGI,[27],1310 nM
same,TGI,[28],83.6 nM
same,GI50,[29],173 nM
same,TGI,[29],1430 nM
same,GI50,[30],233 nM
same,TGI,[30],873 nM
same,GI50,[31],274 nM
same,TGI,[31],990 nM
same,GI50,[32],297 nM
same,TGI,[32],1720 nM
same,GI50,[33],103 nM
same,TGI,[33],1470 nM
same,GI50,[34],41.7 nM
same,TGI,[34],1310 nM
same,GI50,[35],49 nM
same,TGI,[35],187 nM
same,GI50,[36],174 nM
same,TGI,[36],803 nM
same,GI50,[37],134 nM
same,TGI,[37],1350 nM
same,GI50,[38],985 nM
same,TGI,[38],2330 nM
same,GI50,[39],211 nM
same,TGI,[39],1110 nM
same,GI50,[40],62.7 nM
same,TGI,[40],2000 nM
same,GI50,[41],59.4 nM
same,TGI,[41],1160 nM
same,GI50,[42],406 nM
same,TGI,[42],1750 nM
same,GI50,[43],164 nM
same,TGI,[43],697 nM
same,GI50,[44],212 nM
same,TGI,[44],1110 nM
same,GI50,[45],82.5 nM
same,TGI,[45],1870 nM
same,GI50,[46],281 nM
same,TGI,[46],1360 nM
same,GI50,[47],259 nM
same,TGI,[47],1140 nM
same,GI50,[48],61.5 nM
same,TGI,[48],1320 nM
same,GI50,[49],284 nM
same,TGI,[49],1440 nM
same,GI50,[50],107 nM
same,TGI,[50],1600 nM
same,GI50,[51],182 nM
same,TGI,[51],1480 nM
same,GI50,[52],95.6 nM
same,TGI,[52],1160 nM
same,GI50,[53],97.4 nM
same,TGI,[53],1350 nM
same,GI50,[54],41.8 nM
same,TGI,[54],1090 nM
same,GI50,[55],259 nM
same,TGI,[55],1260 nM

# From PubChem BioAssay (NCI)
